B1: oncostatin M (protein, UniProt P13725 26-221, looked up)
Oncostatin-M: AAIGSCSKEYRVLLGQLQKQTDLMQDTSRLLDPYIRIQGLDVPKLREHCRERPGAFPSEETLRGLGRRGFLQTLNATLGCVLHRLADLEQRLPKAQDLERSGLNIEDLEKLQMARPNILGLRNNIYCMAQLLDNSDTAEPTKAGRGASQPPTPTPASDAFQRKLEGCRFLHGYHRFMHSVGRVFSKWGESPNRSRR
notes: differentiation induction factor for osteoblasts from human mesenchymal stem cells in serum-free medium

What was measured:
[1] = test system: human mesenchymal stem cells; assay: Differentiation of human mesenchymal stem cells into adipocytes, Oil Red O staining of accumulated intracellular lipids; format: cell-based; conditions: cholecystokinin 100 nM in differentiation induction medium; compared to cholecystokinin-free control; FIG. 1
Procedure: Human mesenchymal stem cells were incubated in a 24-well culture plate until the cells became confluent. Then, the medium was exchanged with a differentiation induction medium prepared by adding cholecystokinin (100 nM) to high-glucose DMEM medium supplemented with insulin, dexamethasone, isobutylmethylxanthine, indomethacin, antibiotic and 10% fetal bovine serum, and incubation was continued for 3 days. For control, a cholecystokinin-free differentiation induction medium was used. After incubation was conducted for 3 days in a high-glucose DMEM medium (adipocyte maintenance medium) supplemented only with insulin, antibiotic and 10% fetal bovine serum, the same treatments (the induction and the maintenance, respectively, for 3 days) were repeated. Accumulated intracellular lipids were visualized by staining with Oil Red 0 dye.

[2] = test system: human mesenchymal stem cells; assay: Osteoblast differentiation induction from human mesenchymal stem cells, accumulated calcium level per well (Calcium C-Test); format: cell-based; conditions: oncostatin M added (10 ng/ml); irrespective of presence or absence of FBS; compared to 10% FBS-containing differentiation medium without oncostatin M; FIG. 2
Procedure: Human mesenchymal stem cells were purchased from Cambrex, Inc. Dulbecco's Modified Eagle Medium (DMEM, Invitrogen) containing 1.0 g/l of glucose and supplemented with 10% fetal bovine serum (Stem Cell Technologies), 2 mM L-glutamine (Invitrogen), 100 U/ml penicillin and 100 μg/ml streptomycin was used as a maintenance medium. The maintenance medium supplemented with 0.1 μM dexamethasone, 0.05 mM ascorbic acid and 10 mM β-glycerophosphate (=10% FBS-containing differentiation medium) or fetal bovine serum-free maintenance medium supplemented with the three components above was used as a differentiation medium (=serum-free differentiation medium). […] Subsequently, the medium was exchanged every 4 days, and the accumulated calcium level per well was quantified on day 10 of the incubation (Calcium C-Test, Wako Pure Chemical).

Molecule | lipid accumulation (accumulated intracellular lipids, Oil Red O staining) compared to control [1] | accumulation of calcium per well on day 10 of the incubation [2]
cholecystokinin (DYMGWMDF) [ligand of the cholecystokinin receptor] | lipid accumulation is enhanced | –
B1 | – | marked accumulation of calcium was observed

From patent US20090232771A1, “Method of controlling cell functions” (Takeda Pharmaceutical Company Limited, priority 2004, published 2009)
